Results as given in BindingDB's records for doi:10.1016/j.bioorg.2015.02.002 (Bezmialem Vakif University, 2015).

Legend:
Acetylcholinesterase = Acetylcholinesterase (Electrophorus electricus, UniProt O42275); assay: Anticholinesterase Activity Assays; settings: pH 8
Method: (§1) The substrates of the reaction were acetylthiocholine iodide and butyrylthiocholine iodide. 5,5'-dithio-bis(2-nitrobenzoic) acid (DTNB) was used for the measurement of the anticholinesterase activity. The solutions of the samples and galantamine in n-propanol were prepared at concentration of 4000 µg/mL. […] 10 µL of DTNB solution was prepared by adding 2.0 mL of pH 7.0 and 4.0 mL of pH 8.0 phosphate buffers to a mixture of 1.0 mL of 16 mg/mL DTNB and 7.5 mg/mL NaHCO3 in pH 7.0 phosphate buffers. The reaction was initiated by the addition of 10 µL (7.1 mM) acetylthiocholine iodide (or 0.79 mM butyrylthiocholine iodide). Propyl alcohol was used as a solvent to controls. The hydrolysis of these substrates was monitored at 412 nm.

[1] = target: Carboxylic ester hydrolase (Equus caballus, UniProt Q9N1N9); assay: Anticholinesterase Activity Assays; settings: pH 8
Sequence of Carboxylic ester hydrolase (Q9N1N9 whole entry): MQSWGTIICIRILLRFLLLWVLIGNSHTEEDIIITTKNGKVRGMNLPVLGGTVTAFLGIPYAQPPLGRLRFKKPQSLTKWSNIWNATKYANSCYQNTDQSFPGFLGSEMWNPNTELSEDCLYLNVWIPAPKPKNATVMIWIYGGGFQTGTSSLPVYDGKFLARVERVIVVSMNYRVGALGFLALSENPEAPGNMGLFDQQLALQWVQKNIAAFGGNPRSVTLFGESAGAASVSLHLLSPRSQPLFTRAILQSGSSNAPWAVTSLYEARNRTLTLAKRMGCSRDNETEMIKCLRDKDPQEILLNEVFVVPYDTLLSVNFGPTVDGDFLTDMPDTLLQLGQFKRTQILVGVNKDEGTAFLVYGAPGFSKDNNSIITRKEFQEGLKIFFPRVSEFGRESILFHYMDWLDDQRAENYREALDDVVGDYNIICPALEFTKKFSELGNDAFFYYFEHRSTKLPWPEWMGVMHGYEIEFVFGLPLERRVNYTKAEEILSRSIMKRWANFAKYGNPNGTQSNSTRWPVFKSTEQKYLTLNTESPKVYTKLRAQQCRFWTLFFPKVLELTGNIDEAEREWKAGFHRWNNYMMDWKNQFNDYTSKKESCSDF
Method: as §1

Sequence of Acetylcholinesterase (O42275 whole entry): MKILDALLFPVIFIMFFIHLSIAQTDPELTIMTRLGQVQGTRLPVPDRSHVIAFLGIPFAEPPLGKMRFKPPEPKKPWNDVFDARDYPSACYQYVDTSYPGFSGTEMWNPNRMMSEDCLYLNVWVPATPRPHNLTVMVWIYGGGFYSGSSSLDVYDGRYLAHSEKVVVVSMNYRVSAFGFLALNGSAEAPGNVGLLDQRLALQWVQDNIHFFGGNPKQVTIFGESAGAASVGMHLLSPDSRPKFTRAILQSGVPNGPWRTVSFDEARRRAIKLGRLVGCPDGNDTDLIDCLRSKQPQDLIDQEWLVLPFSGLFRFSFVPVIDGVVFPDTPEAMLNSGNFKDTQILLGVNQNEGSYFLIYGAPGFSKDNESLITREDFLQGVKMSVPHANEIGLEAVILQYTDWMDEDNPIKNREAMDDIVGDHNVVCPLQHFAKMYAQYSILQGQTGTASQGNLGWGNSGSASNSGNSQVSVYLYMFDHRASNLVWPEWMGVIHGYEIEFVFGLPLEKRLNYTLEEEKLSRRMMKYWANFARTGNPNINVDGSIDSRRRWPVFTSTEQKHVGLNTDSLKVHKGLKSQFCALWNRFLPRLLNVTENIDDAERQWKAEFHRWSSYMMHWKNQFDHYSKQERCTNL

Row | Structure (SMILES) | IC50 (Acetylcholinesterase) [µM] | IC50 [1] [µM]
1 | COc1cccc2cc(-c3csc(NC(=O)Nc4cccc(F)c4)n3)c(=O)oc12 [1-(3-Fluorophenyl)-3-(4-(8-methoxy-2-oxo-2H-chromen-3-yl)thiazol-2-yl)urea (e21)] | 67 | 110
2 | COc1cccc2cc(-c3csc(NC(=O)Nc4ccc(C)cc4)n3)c(=O)oc12 [1-(4-(8-Methoxy-2-oxo-2H-chromen-3-yl)thiazol-2-yl)-3-(ptolyl)urea (e16)] | 82.1 | 95.6
